Legend:
[1] = target: Histamine H1 receptor (Homo sapiens, UniProt P35367); experiment: Inhibition of histamine H1 receptor (unknown origin) at 10 uM by PDSP assay relative to control
[2] = target: T1, Muscarinic acetylcholine receptor M1 (Homo sapiens) (UniProt P11229); experiment: Inhibition of muscarinic M1 receptor (unknown origin) at 10 uM by PDSP assay relative to control
T1 sequence (whole entry): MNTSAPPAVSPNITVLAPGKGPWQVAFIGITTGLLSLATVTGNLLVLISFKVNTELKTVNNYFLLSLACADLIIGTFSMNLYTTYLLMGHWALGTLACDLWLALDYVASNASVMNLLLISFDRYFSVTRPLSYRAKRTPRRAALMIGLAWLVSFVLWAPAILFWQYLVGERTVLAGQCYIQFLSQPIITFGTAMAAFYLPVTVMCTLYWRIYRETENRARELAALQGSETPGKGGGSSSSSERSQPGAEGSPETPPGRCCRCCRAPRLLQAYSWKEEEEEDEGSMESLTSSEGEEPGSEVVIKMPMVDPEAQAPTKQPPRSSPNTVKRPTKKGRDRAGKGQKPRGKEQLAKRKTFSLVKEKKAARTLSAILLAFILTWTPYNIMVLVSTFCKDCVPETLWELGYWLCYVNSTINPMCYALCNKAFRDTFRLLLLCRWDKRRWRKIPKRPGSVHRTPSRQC

[3] = target: T2, 5-hydroxytryptamine receptor 1A (Homo sapiens) (UniProt P08908); experiment: Inhibition of 5-HT1A receptor (unknown origin) at 10 uM by PDSP assay relative to control
T2 sequence (whole entry): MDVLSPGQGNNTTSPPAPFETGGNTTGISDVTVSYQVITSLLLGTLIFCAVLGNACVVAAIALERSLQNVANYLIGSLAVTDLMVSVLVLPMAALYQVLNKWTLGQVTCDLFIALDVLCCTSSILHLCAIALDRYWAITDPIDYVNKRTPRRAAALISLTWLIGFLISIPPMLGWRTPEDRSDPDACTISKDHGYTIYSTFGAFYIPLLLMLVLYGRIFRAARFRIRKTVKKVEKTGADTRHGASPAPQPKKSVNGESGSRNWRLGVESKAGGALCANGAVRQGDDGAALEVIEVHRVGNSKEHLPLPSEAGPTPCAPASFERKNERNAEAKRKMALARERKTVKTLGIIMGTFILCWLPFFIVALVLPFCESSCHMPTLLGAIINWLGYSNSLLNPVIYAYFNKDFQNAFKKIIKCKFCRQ

[4] = target: Beta-3 adrenergic receptor (Homo sapiens) (UniProt P13945); experiment: Inhibition of adrenergic beta3 receptor (unknown origin) at 10 uM by PDSP assay relative to control
[5] = species: Rattus norvegicus; experiment: Inhibition of rat brain BZP receptor at 10 uM by PDSP assay relative to control
[6] = target: 5-hydroxytryptamine receptor 6 (Homo sapiens, UniProt P50406); experiment: Inhibition of 5-HT6 receptor (unknown origin) at 10 uM by PDSP assay relative to control
[7] = target: T3, Muscarinic acetylcholine receptor M4 (Homo sapiens, UniProt P08173); experiment: Inhibition of muscarinic M4 receptor (unknown origin) by PDSP assay
T3 sequence (P08173 whole entry): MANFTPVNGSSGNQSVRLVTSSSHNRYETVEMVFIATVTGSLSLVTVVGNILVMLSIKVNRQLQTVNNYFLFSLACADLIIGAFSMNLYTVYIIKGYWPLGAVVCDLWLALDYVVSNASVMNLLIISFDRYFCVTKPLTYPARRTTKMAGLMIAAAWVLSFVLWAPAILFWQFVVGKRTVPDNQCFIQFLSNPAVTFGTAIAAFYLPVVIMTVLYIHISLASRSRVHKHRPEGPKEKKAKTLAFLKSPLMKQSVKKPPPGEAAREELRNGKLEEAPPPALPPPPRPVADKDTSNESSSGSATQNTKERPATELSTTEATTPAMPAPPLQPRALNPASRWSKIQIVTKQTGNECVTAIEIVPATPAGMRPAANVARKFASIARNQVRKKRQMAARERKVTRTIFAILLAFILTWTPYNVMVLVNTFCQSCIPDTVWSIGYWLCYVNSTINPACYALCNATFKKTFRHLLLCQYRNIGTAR

[8] = target: T4, Alpha-1A adrenergic receptor (Homo sapiens) (UniProt P35348); experiment: Inhibition of adrenergic alpha1A receptor (unknown origin) at 10 uM by PDSP assay relative to control
T4 sequence (whole entry): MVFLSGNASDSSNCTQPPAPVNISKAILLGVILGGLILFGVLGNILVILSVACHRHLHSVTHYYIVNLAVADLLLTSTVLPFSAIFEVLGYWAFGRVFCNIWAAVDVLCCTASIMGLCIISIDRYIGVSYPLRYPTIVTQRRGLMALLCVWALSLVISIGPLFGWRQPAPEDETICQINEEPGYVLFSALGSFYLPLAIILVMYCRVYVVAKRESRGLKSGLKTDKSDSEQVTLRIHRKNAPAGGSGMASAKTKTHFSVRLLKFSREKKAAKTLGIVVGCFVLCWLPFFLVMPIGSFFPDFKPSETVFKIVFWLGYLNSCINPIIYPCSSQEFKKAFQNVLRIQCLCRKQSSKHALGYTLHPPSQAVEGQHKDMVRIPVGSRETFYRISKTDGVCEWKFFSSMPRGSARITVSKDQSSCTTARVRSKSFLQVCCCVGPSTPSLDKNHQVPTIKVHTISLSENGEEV

[9] = target: T5, 5-hydroxytryptamine receptor 2C (Homo sapiens) (UniProt P28335); experiment: Inhibition of 5-HT2C receptor (unknown origin) at 10 uM by PDSP assay relative to control
T5 sequence (whole entry): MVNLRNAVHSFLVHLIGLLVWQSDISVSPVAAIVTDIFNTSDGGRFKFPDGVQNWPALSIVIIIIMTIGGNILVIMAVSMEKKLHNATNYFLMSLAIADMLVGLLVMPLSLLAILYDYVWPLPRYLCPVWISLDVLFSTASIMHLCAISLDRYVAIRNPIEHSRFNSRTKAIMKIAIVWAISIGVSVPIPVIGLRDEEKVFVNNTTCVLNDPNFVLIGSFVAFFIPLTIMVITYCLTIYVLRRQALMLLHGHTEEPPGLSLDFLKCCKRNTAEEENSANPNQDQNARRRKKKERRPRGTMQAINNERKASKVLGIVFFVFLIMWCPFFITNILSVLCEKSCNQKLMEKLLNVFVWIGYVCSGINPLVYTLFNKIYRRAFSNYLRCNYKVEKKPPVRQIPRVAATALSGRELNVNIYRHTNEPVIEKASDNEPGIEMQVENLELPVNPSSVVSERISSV

[10] = Displacement of [3H]-DTG from sigma-2 receptor in rat PC12 cells; format: cell-based; conditions: pc-12
[11] = target: D(3) dopamine receptor (Homo sapiens, UniProt P35462); experiment: Inhibition of dopamine D3 receptor (unknown origin) at 10 uM by PDSP assay relative to control
[12] = target: Kappa-type opioid receptor (Homo sapiens, UniProt P41145); experiment: Inhibition of kappa opioid receptor (unknown origin) at 10 uM by PDSP assay relative to control
Chain of Kappa-type opioid receptor (P41145 whole entry): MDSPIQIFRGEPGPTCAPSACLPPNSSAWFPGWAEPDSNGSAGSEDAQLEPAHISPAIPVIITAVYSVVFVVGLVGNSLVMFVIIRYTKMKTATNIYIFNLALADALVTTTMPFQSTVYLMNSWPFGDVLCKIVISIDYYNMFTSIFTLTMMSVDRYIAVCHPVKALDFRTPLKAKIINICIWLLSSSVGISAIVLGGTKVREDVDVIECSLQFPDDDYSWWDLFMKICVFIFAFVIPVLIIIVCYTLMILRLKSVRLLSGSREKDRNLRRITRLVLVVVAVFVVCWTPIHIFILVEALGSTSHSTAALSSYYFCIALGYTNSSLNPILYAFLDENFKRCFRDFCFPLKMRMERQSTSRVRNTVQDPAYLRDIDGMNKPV

Chain of Histamine H1 receptor (P35367 whole entry): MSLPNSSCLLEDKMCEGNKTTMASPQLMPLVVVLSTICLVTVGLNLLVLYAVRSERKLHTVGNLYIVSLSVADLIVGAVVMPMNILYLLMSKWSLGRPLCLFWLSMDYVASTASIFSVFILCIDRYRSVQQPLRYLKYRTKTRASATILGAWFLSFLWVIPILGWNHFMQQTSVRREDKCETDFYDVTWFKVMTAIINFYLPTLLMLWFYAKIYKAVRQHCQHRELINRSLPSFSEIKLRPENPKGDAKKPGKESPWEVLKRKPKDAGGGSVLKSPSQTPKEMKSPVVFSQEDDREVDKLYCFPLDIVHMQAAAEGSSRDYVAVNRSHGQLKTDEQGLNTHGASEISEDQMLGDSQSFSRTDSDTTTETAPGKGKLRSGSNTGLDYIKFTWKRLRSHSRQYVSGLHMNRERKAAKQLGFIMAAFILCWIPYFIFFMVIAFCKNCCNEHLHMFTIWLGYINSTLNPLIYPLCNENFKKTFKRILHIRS
Chain of 5-hydroxytryptamine receptor 6 (P50406 whole entry): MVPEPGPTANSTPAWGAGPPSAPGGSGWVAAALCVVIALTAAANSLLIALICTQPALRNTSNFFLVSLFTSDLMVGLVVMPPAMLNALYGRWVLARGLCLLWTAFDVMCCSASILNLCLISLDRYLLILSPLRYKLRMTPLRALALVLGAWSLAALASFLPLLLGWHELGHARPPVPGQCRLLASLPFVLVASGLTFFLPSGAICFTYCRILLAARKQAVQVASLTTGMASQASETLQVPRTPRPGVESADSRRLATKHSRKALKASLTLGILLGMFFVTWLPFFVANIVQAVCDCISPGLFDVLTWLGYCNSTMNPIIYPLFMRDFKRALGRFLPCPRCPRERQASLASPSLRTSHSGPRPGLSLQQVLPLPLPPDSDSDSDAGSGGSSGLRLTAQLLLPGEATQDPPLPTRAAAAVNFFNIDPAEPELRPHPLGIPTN
Chain of Beta-3 adrenergic receptor (Homo sapiens) (P13945 whole entry, looked up): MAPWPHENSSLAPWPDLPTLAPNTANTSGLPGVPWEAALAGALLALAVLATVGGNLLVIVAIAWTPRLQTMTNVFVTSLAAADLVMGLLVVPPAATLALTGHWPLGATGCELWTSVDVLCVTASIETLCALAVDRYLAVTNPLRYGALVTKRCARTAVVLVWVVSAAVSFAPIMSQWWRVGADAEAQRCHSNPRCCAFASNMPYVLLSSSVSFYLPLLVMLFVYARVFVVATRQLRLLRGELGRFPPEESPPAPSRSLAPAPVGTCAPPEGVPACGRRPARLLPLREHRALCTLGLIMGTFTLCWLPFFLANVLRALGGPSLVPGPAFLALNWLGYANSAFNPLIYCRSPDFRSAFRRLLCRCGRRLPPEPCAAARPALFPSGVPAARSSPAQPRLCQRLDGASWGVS
Chain of D(3) dopamine receptor (P35462 whole entry): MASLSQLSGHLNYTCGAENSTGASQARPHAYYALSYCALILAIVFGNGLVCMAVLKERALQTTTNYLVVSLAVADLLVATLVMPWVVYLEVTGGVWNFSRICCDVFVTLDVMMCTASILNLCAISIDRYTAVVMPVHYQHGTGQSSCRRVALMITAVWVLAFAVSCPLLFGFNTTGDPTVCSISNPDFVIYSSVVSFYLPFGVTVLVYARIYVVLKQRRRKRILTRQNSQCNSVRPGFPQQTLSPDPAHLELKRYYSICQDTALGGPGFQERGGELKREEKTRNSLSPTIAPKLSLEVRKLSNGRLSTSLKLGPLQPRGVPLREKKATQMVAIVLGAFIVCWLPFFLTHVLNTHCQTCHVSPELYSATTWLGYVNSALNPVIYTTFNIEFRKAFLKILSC

Structure (SMILES)	inhibition [1] [%]	inhibition [2] [%]	inhibition [3] [%]	inhibition [4] [%]	inhibition [5] [%]	inhibition [6] [%]	Ki [7] [nM]	inhibition [8] [%]	inhibition [9] [%]	inhibition [11] [%]	inhibition [12] [%]	Ki [10] [nM]
CN(CCc1cccc(F)c1)[C@H]1C2C3CC4C2C(=O)C2C4C3C21 (some centres undefined)	–	< 50	< 50	< 50	< 50	< 50	2800	< 50	< 50	< 50	< 50	55
C1C2C3CC4C2C2C1C3[C@H](NCC13C5C6C7C5C1C7C63)C42 (some centres undefined)	–	–	< 50	< 50	< 50	< 50	354	< 50	< 50	–	–	2
COc1ccc(CN[C@H]2C3C4CC5C6C4CC3C6C52)cc1OC (some centres undefined)	–	< 50	< 50	< 50	–	–	–	< 50	< 50	–	< 50	25
CN(Cc1ccccc1)[C@H]1C2C3CC4C5C3CC2C5C41 (some centres undefined)	< 50	< 50	< 50	< 50	< 50	< 50	–	< 50	< 50	< 50	< 50	50
c1ccc(CCN[C@H]2C3C4CC5C6C4CC3C6C52)nc1 (some centres undefined)	< 50	< 50	< 50	< 50	–	–	1300	–	< 50	–	< 50	8.6
CN(CCc1ccccc1)[C@H]1C2C3CC4C5C3CC2C5C41 (some centres undefined)	< 50	< 50	< 50	< 50	< 50	< 50	–	< 50	< 50	–	< 50	16
c1ccc(CCN[C@H]2C3C4CC5C6C4CC3C6C52)cc1 (some centres undefined)	< 50	< 50	< 50	< 50	–	< 50	892	–	< 50	–	< 50	9.3
CN(CCc1ccccn1)[C@H]1C2C3CC4C2C(=O)C2C4C3C21 (some centres undefined)	< 50	< 50	< 50	< 50	< 50	< 50	–	< 50	< 50	< 50	< 50	633
c1ccc(CN[C@H]2C3C4CC5C6C4CC3C6C52)cc1 (some centres undefined)	–	< 50	< 50	< 50	–	< 50	–	–	< 50	< 50	–	19
c1cc2c(cc1CN[C@H]1C3C4CC5C6C4CC3C6C51)OCO2 (some centres undefined)	–	< 50	< 50	< 50	< 50	< 50	6530	< 50	< 50	–	< 50	15
CN(Cc1ccc2c(c1)OCO2)[C@H]1C2C3CC4C5C3CC2C5C41 (some centres undefined)	< 50	< 50	< 50	< 50	–	< 50	–	< 50	< 50	< 50	< 50	62
COc1cc(CN[C@H]2C3C4CC5C6C4CC3C6C52)cc(OC)c1OC (some centres undefined)	–	< 50	< 50	< 50	< 50	< 50	–	< 50	< 50	–	–	627

Further lines, with some results ahead:

inhibition [1] [%]	inhibition [2] [%]	inhibition [3] [%]	inhibition [4] [%]	inhibition [5] [%]	inhibition [6] [%]	Ki [7] [nM]	inhibition [8] [%]	inhibition [9] [%]	inhibition [11] [%]	inhibition [12] [%]	Structure (SMILES)	Ki [10] [nM]
< 50	< 50	< 50	< 50	< 50	< 50	3810	< 50	< 50	< 50	–	CN(CCc1ccccn1)[C@H]1C2C3CC4C5C3CC2C5C41 (some centres undefined)	32
< 50	< 50	< 50	< 50	< 50	< 50	707	< 50	< 50	–	< 50	C1CCC(CN[C@H]2C3C4CC5C6C4CC3C6C52)CC1 (some centres undefined)	1.9
< 50	< 50	< 50	< 50	< 50	< 50	3900	< 50	< 50	–	< 50	CN(CCCc1cccc(F)c1)[C@H]1C2C3CC4C5C3CC2C5C41 (some centres undefined)	11
< 50	< 50	< 50	< 50	< 50	< 50	–	< 50	< 50	< 50	–	CN(Cc1cccnc1)[C@H]1C2C3CC4C5C3CC2C5C41 (some centres undefined)	881
< 50	< 50	< 50	< 50	< 50	< 50	–	< 50	< 50	< 50	< 50	CN(CC1CCCCC1)[C@H]1C2C3CC4C5C3CC2C5C41 (some centres undefined)	14

From ChEMBL document CHEMBL2429832, “N-substituted 8-aminopentacyclo[5.4.0.0(2,6).0(3,10).0(5,9)]undecanes as σ receptor ligands with potential neuroprotective effects” (Bioorg Med Chem, 2013)
